# Tested on: tubulin
# Assay: inhibition of the polymerization of tubulin into microtubules, followed by changes in optical density (Weisenberg method)
# Format: biochemical
# Conditions: read-out: IC50, concentration of compound which brings about a 50% inhibition of the polymerization of tubulin into microtubules
# From the text: This property was confirmed by measuring the inhibition of the polymerization of tubulin into microtubules in the presence of the compounds of the invention, according to the method described by R. C. Weisenberg (Science 177, 1196-7, 1972). The results are expressed in terms of IC50, which corresponds to the concentration of compound which brings about a 50% inhibition of the polymerization. This phenomenon is readily monitored and quantified by means of the changes in optical density.
row,SMILES,IC50 [nM]
1,"CC[C@]12C=CCN3CC[C@@]4(c5cc([C@@]6(C(=O)OC)C[C@H]7CN(CCc8c6[nH]c6ccccc86)CC(F)(C(C)Cl)C7)c(OC)cc5N(C)[C@H]4[C@@](O)(C(=O)OC)[C@@H]1OC(C)=O)[C@@H]32 (stereo partly drawn) [Example 3, 20'-chloro-4'-deoxy-4'-fluorovinblastine]",1540
2,"CC[C@]12C=CCN3CC[C@@]4(c5cc([C@@]6(C(=O)OC)C[C@@H]7CC(C(C)Cl)CN(CCc8c6[nH]c6ccccc86)C7)c(OC)cc5N(C)[C@H]4[C@@](O)(C(=O)OC)[C@@H]1OC(C)=O)[C@@H]32 (stereo partly drawn) [Example 1, 20'-chloro-4'-deoxyvinblastine]",1990
3,"CCC1=C[C@@H]2CN(C1)Cc1c([nH]c3ccccc13)[C@@](C(=O)OC)(c1cc3c(cc1OC)N(C)[C@H]1[C@@](O)(C(=O)OC)[C@H](OC(C)=O)[C@]4(CC)C=CCN5CC[C@]31[C@@H]54)C2 [Vinorelbine, reference compound]",1700

# Reference: patent publication US6127377A, “Vinca alkaloid antimitotic halogenated derivatives” (Adir et Compagnie, priority 1997, dated 2000)
